Data: patent US4929445A, “Method for inhibiting Listeria monocytogenes using a bacteriocin” (Microlife Technics, Inc., priority 1988, dated 1990)

Tests used:
[1] = tested on: Pediococcus pentosaceus FBB63C; assay: MIC and MBC by two-fold broth dilution; format: cell-based; conditions: APT broth, 24 hours at 32° C.
Listeria monocytogenes [2] = assay: Effect of PA-1 powder on an exponential culture (turbidity at 660 nm); format: cell-based; conditions: 200 U/ml and 500 U/ml added after 3.75 hours, APT broth, 32° C.
Method: The PA-1 powder was added to a L. monocytogenes culture at 200 U(units)/ml or 500 U/ml and turbidity (which is an indicator of the number of cells) was monitored over time at 660 nanometers. The symbols used are , control (no PA-1 added); .circle., 200 U/ml PA-1; .quadrature., 500 U/ml PA-1.
Sterile PA-1 bacteriocin powder was added to an exponential culture of Listeria monocytogenes at a rate of 200 U/ml of broth and 500 U/ml of broth. Listeria monocytogenes was grown in APT broth at 32° C. Absorbance was followed over time at 660 nm.

[3] = cited from earlier work
[4] = tested on: Listeria monocytogenes LM01; assay: MIC and MBC by two-fold broth dilution; format: cell-based; conditions: APT broth, 24 hours at 32° C.
Method: Bacteriocin PA-1 powder was dissolved in APT broth and two-fold serially diluted to concentrations ranging from 1000 U/ml to 2.0 U/ml. Approximately 1×10^3 Listeria monocytogenes/ml were added to each of the tubes which then were incubated for 24 hours at 32° C. The MIC value was the lowest concentration tube displaying no visible turbidity.

Listeria monocytogenes [5] = assay: Activity of PA-1 against Listeria monocytogenes in cheese sauce; format: cell-based; conditions: cheese sauce pH 5.25, 4° C., LM 5.3 × 10^3 cells per gram
Method: Listeria monocytogenes was added to the cheese sauce (pH 5.25) at a rate of 5.3×10^3 cfu/g of cheese sauce. The bacteriocin powder PA-1 was added to the cheese sauce at a rate of 10 or 50 U/g of sauce. The samples were mixed and incubated at 4° C. and aliquots were removed and examined for growth of Listeria monocytogenes.

[6] = tested on: Lactococcus, Streptococcus, Staphylococcus, Micrococcus and Lactobacillus strains; conditions: Lactococcus lactis, L. lactis subsp. diacetylactis, L. cremoris, Streptococcus thermophilus, Staphylococcus aureus, xylosus, epidermidis, carnosus, Micrococcus varians, sodonensis, Lactobacillus acidophilus, bulgaricus; cited from earlier work
Listeria monocytogenes [7] = assay: Activity of PA-1 against Listeria monocytogenes in half and half cream; format: cell-based; conditions: half and half cream pH 6.7, 4° C., LM 4.3 × 10^3 cells per ml, PA-1 50 U/ml
Method: Listeria monocytogenes was added to the cream (pH 6.7) at a rate of 4.3×10^3 cfu/ml of cream. The bacteriocin powder PA-1 was added to the cream at a rate of 10 or 50 U/ml cream. The samples were mixed and incubated at 4° C. and aliquots were removed and examined for growth of Listeria monocytogenes .

Listeria monocytogenes [8] = assay: Activity of PA-1 against Listeria monocytogenes in dressed Cottage cheese; format: cell-based
Method: Listeria monocytogenes was added to dressed Cottage cheese (pH 5.1) at a rate of 6.5×10^3 cfu/gram of dressed Cottage cheese. The bacteriocin powder to Example 1 (PA-1) was added to the Cottage cheese at a rate of 10 or 50 U (units)/g dressed Cottage cheese. The samples were mixed and incubated at 4° C. and aliquots were removed and plated onto McBride's Agar (Difco, Detroit, Mich.) and incubated at 32° C. and examined for growth of Listeria monocytogenes.

## PA-1: bacteriocin of about 16,500 daltons produced by Pediococcus acidilactici NRRL-B-18050 (PAC 1.0); tested as lyophilized culture supernatant powder with nonfat dry milk
[1]; no CFU on APT agar
  MBC: 31.3 U/ml
[1]; no visible turbidity
  MIC: 7.8 U/ml
Listeria monocytogenes [2]
  Effect on exponential culture, absorbance at 660 nm: not only inhibitory but also bacteriocidal
[3]; heating to 100° C. in water
  Effect of heating on the bacteriocin: unaffected
[3]; in vitro mixing with protease, papain or alpha-chymotrypsin
  Effect of proteolytic enzymes on the bacteriocin: inactivated
[3]; phospholipase C, lysozyme, Dnase and RNase
  Effect of other enzymes on the bacteriocin: unaffected
[4]; no CFU on APT agar
  MBC: 7.8 U/ml
[4]; about 1×10^3 cells/ml, no visible turbidity
  MIC: < 2.0 U/ml
Listeria monocytogenes [5]; PA-1 10 U/g
  Growth of Listeria at 24 h: 4.0 × 10^2 cfu/g
Listeria monocytogenes [5]; PA-1 50 U/g
  Growth of Listeria at 24 h: 0 cfu/g
[6]
  Inhibitory activity against other gram positive bacteria: No activity was found
Listeria monocytogenes [7]
  Growth of Listeria at 24 h: 0 cfu/g
Listeria monocytogenes [8]; dressed Cottage cheese pH 5.1, 4° C., LM 6.5 × 10^3 cells per gram, PA-1 10 U/g
  Growth of Listeria at 24 h: 0 cfu/g
Listeria monocytogenes [8]; dressed Cottage cheese pH 5.1, 4° C., LM 6.5 × 10^3 cells per gram, PA-1 50 U/g
  Growth of Listeria at 24 h: 0 cfu/g
Listeria monocytogenes [8]; dressed Cottage cheese, 4° C., no LM added, PA-1 50 U/g
  Growth of Listeria at 24 h: 0 cfu/g
